Where “and” joins values, the source holds several entries; their conditions need not be identical. Equal values may be shown once.
Target: Protein GrpE (Escherichia coli (strain K12)) (UniProt P09372)
Test: inhibition of DnaK/DnaJ/GrpE luciferase refolding – biochemical, luminescence, E. coli K12, dose response (AID 1462)
Conditions: DnaK/DnaJ/GrpE denatured luciferase refolding

Chain of Protein GrpE (Escherichia coli (strain K12)) (P09372 whole entry, looked up): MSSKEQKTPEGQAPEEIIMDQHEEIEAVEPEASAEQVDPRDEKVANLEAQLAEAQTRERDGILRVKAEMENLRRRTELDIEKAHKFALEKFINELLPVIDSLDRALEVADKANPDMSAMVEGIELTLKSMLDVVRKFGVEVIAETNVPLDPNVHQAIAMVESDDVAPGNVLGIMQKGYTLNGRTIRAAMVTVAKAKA

Nc1c(S(=O)(=O)O)cc(Nc2ccc(Nc3nc(Cl)nc(Nc4ccc(S(=O)(=O)O)cc4)n3)c(S(=O)(=O)O)c2)c2c1C(=O)c1ccccc1C2=O
IC50: 1660 nM and 551 nM

— PubChem BioAssay AID1462 (Emory University Molecular Libraries Screening Center, 2008)
